We go through 2 molecules from publication PMC4037565 (Organic & biomolecular chemistry, 2013).

Square brackets hold non-standard residues; d marks the D form. Peptide text beside a SMILES is read from it. Lys(N3) = [N-]=[N+]=NCCCC[C@H](N)C(=O)O; Orn = NCCC[C@H](N)C(=O)O; Pra = C#CC[C@H](N)C(=O)O

Data set [1] in a line: Solubility under NMR/CD buffer conditions. In kind it is physicochemical. The settings on record: 50 mM KD2PO4, pH 7, 20°C.
For data set [2] the following is noted: read-out: Kd / binding constant for ATP; parent peptide; cited from earlier work.

Turning to `C#CC[C@H](NC(=O)[C@H](CCCNC(=N)N)NC(C)=O)C(=O)N[C@H](C(=O)N[C@@H](CCCCN)C(=O)N[C@H](C(=O)N[C@@H](CC(N)=O)C(=O)NCC(=O)N[C@@H](CCCN)C(=O)N[C@@H](Cc1c[nH]c2ccccc12)C(=O)N[C@H](C(=O)N[C@@H](CCCCN=[N+]=[N-])C(=O)N[C@@H](CCC(N)=O)C(N)=O)[C@@H](C)CC)C(C)C)C(C)C` [NHB-rev-U] (Ac-R[Pra]VKVNG[Orn]WI[Lys(N3)]Q-NH2), the “solubility (observation)” value in data set [1] was “not fully soluble and formed a gel-like substance”.
For the molecule Ac-RWVKVNGOWIKQ-NH2 [WKWK], in data set [2], the Kd was 170 µM.
